What was measured:
[1] = Characterization as pH probes: fluorescence intensity versus pH; format: physicochemical
Excerpt: In addition, the absorption and fluorescence wavelengths of the compound of Formula 97 well match currently available laser lines (488 nm, 532 nm, and 550 nm).
That is, the compound of Formula 111 as a pH probe emitted strong fluorescence at pH 2-6 and the compound of Formula 97 as a pH probe emitted strong fluorescence at pH 8-12.

[2] = Photophysical properties incl. two-photon cross-sections (femtosecond fluorescence measurement technique); format: physicochemical
Method: All measurements were performed in DMSO, ethanol, and PBS buffer. Two-photon cross-sections (δ) were measured using a femtosecond (fs) fluorescence measurement technique.

[3] = system: mitochondria, HeLa A431 cells; assay: Selectivity for mitochondria: co-localization with MitoTracker Green FM in HeLa A431 cells; format: cell-based; settings: dye 0.5 μM
Method: The specific selectivity of the compound of Formula 97 for mitochondria was investigated. To this end, HeLa A431 cells were co-localized with the compound of Formula 97 and a commercially available mitochondrial marker (MTG, 0.2 μM MitoTracker Green FM for mitochondria).
OPM images were acquired at 571-650 nm (Formula 97, λex=552 nm) and 498-540 nm (MTG, λex=488 nm) and are shown in FIGS. 6a and 6b, respectively. FIG. 6c is a merged image of FIGS. 6a and 6b. The Pearson's co-localization coefficient (A) was calculated using the LAS AF software. [MTG]=0.2μM for 30 min incubation,λex=488 nm [Formula 97]=0.5μM for 30 min incubation,λex=552 nm

[4] = Absorption spectra, emission spectra, molar extinction coefficients and quantum yields of the dye compounds; format: physicochemical; settings: Table 6

CC1(C)C2=C3C=C4C=CC(=O)C=C4OC3CCN2c2ccccc21 (stereo not drawn) [Formula 97]
pH at which the pH probe emitted strong fluorescence [1]: 8-12 pH | fluorescence intensity under acidic conditions ([1]; pH 1-6): decreased | fluorescence intensity under basic conditions ([1]; pH 9-12): increased | d: Peak two-photon cross-section ([2]; Buffer (PBS buffer)): 35 10^−50 cm^4s per photon (GM) | dΦ: Two-photon action cross-section ([2]; Buffer (PBS buffer)): 22 GM | Φ: Fluorescence quantum yield ([2]; Buffer (PBS buffer)): 0.63 | λ^(2)max^abs: Maximum wavelength in two-photon absorption spectrum ([2]; Buffer (PBS buffer)): 920 nm | λmax^fl: Maximum wavelength in single-photon emission spectrum ([2]; Buffer (PBS buffer)): 565 nm | eΦ: Molar extinction coefficient × fluorescence quantum yield ([2]; Buffer (PBS buffer), in M-1cm-1): 8820 | Φ: Fluorescence quantum yield ([2]; DMSO): 0.94 | λmax^fl: Maximum wavelength in single-photon emission spectrum ([2]; DMSO): 567 nm | dΦ: Two-photon action cross-section ([2]; EtOH): 14 GM | λ^(2)max^abs: Maximum wavelength in two-photon absorption spectrum ([2]; EtOH): 720 nm | staining selectivity for mitochondria [3]: mitochondria were predominantly stained | degree of overlapping (A), Pearson's co-localization coefficient with Mitotracker Green FM ([3]; MTG 0.2 μM, 30 min incubation, LAS AF software): 0.74 | Quantum yield ([4]; solvent DMSO): 0.94 | ε (molar extinction coefficient) ([4]; solvent DMSO): 35,000 M^−1cm^−1 | λabs ([4]; solvent DMSO): 551 nm | λem ([4]; solvent DMSO): 568 nm | Quantum yield ([4]; solvent EtOH): 0.90 | ε (molar extinction coefficient) ([4]; solvent EtOH): 47,000 M^−1cm^−1 | λabs ([4]; solvent EtOH): 555 nm | λem ([4]; solvent EtOH): 567 nm | Quantum yield ([4]; solvent PBS): 0.63 | ε (molar extinction coefficient) ([4]; solvent PBS): 14,000 M^−1cm^−1 | λabs ([4]; solvent PBS): 541 nm | λem ([4]; solvent PBS): 565 nm
